Test results from US8273774B2, “Phenoxypyridinylamide compounds” (AstraZeneca AB, priority 2008, dated 2012).

biological target: recombinant Human Phosphodiesterase B2 (PDE4B2) (Homo sapiens, UniProt Q07343); experiment: Human Phosphodiesterase B2 Radiometric Assay; format: biochemical; settings: 0.1 μg/mL recombinant PDE4B2; preincubated at 30 C for 30 min; [3H]cyclic AMP 8 nM, stopped after 20 min; yttrium silicate SPA beads; read-out: PDE4B2 pIC50 (converted)
How it was run: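 Compounds preincubated 30 min at 30 C with 0.1 μg/mL recombinant PDE4B2 in 50 mM HEPES pH 7.5, 8.3 mM MgCl2, 1.7 mM EGTA, 0.01% Brij 35.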

recombinant Human Phosphodiesterase B2 (PDE4B2), sequence (Q07343 1-564 isoform Q07343-2): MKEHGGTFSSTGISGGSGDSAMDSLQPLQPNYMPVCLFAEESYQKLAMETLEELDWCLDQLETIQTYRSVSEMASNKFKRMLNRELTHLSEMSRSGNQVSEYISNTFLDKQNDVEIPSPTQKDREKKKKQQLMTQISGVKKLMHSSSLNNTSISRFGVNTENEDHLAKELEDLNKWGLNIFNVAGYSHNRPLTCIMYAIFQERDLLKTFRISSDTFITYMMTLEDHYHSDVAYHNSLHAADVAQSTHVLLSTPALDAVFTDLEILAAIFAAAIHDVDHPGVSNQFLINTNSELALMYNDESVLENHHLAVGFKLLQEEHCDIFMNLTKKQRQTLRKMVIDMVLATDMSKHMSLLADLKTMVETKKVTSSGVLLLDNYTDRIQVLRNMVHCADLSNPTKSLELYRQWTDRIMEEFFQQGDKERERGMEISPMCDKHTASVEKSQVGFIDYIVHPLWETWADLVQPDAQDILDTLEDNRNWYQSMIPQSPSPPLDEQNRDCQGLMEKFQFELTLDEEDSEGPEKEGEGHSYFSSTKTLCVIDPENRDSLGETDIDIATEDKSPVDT

| IC50 | SMILES |
| --- | --- |
| 39.8 pM | C[C@@H]1CN(CCc2ccc(-c3cccc(Oc4ncc(F)cc4C(=O)N[C@H]4CC[C@@H](NC(=O)c5cc6n(n5)CCCC6)CC4)c3)cc2)C[C@H](C)N1 [Example 162, N-((1s,4s)-4-(2-(4′-(2-((3S,5R)-3,5-Dimethylpiperazin-1-yl)ethyl)biphenyl-3-yloxy)-5-fluoronicotinamido)cyclohexyl)-4,5,6,7-tetrahydropyrazolo[1,5-a]pyridine-2-carboxamide] |
| 25.1 pM | Cc1nc(C(=O)N[C@H]2CC[C@@H](NC(=O)c3cc(F)cnc3Oc3cccc(-c4ccc(O)c(CN5C[C@@H](C)N[C@@H](C)C5)c4)c3)CC2)cs1 [Example 68, N-((1s,4s)-4-(2-(3′-(((3R,5S)-3,5-dimethylpiperazin-1-yl)methyl)-4′-hydroxybiphenyl-3-yloxy)-5-fluoronicotinamido)cyclohexyl)-2-methylthiazole-4-carboxamide] |
| 31.6 pM | Cc1cccc(C(=O)N[C@H]2CC[C@@H](NC(=O)c3cc(F)cnc3Oc3cccc(-c4ccc(CCCNCCCO)cc4)c3)CC2)n1 [Example 158, N-((1s,4s)-4-(5-Fluoro-2-(4′-(3-(3-hydroxypropylamino)propyl)biphenyl-3-yloxy)nicotinamido)cyclohexyl)-6-methylpicolinamide] |
| 50.1 pM | O=C(N[C@H]1CC[C@@H](NC(=O)c2cc(F)cnc2Oc2cccc(-c3ccc(CN4CCSCC4)cc3CN3CCOCC3)c2)CC1)c1csc(CO)n1 [Example 170, N-((1s,4s)-4-(5-Fluoro-2-(2′-(morpholinomethyl)-4′-(thiomorpholinomethyl)biphenyl-3-yloxy)nicotinamido)cyclohexyl)-2-(hydroxymethyl)thiazole-4-carboxamide] |
| 50.1 pM | Cc1cc(C(=O)N[C@H]2CC[C@@H](NC(=O)c3cc(F)cnc3Oc3cccc(-c4cccc(CCCN5C[C@@H](C)N[C@@H](C)C5)c4)c3)CC2)nn1C [Example 126, N-((1s,4s)-4-(1,5-dimethyl-1H-pyrazole-3-carboxamido)cyclohexyl)-2-(3′-(3-((3S,5R)-3,5-dimethylpiperazin-1-yl)propyl)biphenyl-3-yloxy)-5-fluoronicotinamide] |
| 50.1 pM | C[C@@H]1CN(CCCc2ccc(-c3cccc(Oc4ncc(F)cc4C(=O)N[C@H]4CC[C@@H](NC(=O)c5cc6n(n5)CCCO6)CC4)c3)cc2)C[C@H](C)N1 [Example 168, N-((1s,4s)-4-(2-(4′-(3-((3S,5R)-3,5-Dimethylpiperazin-1-yl)propyl)biphenyl-3-yloxy)-5-fluoronicotinamido)cyclohexyl)-6,7-dihydro-5H-pyrazolo[5,1-b][1,3]oxazine-2-carboxamide] |
| 200 pM | Cc1cc(C(=O)N[C@H]2CC[C@@H](NC(=O)c3cc(F)cnc3Oc3cccc(-c4ccc(CN5CCN(C(C)C)CC5)cc4CN4CCOCC4)c3)CC2)nn1C [Example 183, N-((1s,4s)-4-(1,5-Dimethyl-1H-pyrazole-3-carboxamido)cyclohexyl)-5-fluoro-2-(4′-((4-isopropylpiperazin-1-yl)methyl)-2′-(morpholinomethyl)biphenyl-3-yloxy)nicotinamide] |
| 39.8 pM | CC(C)c1nc(C(=O)N[C@H]2CC[C@@H](NC(=O)c3cc(F)cnc3Oc3cccc(-c4ccc(CN5C[C@@H](C)N[C@@H](C)C5)cc4CN4CCOCC4)c3)CC2)cs1 [Example 190, N-((1s,4s)-4-(2-(4′-(((3S,5R)-3,5-dimethylpiperazin-1-yl)methyl)-2′-(morpholinomethyl)biphenyl-3-yloxy)-5-fluoronicotinamido)cyclohexyl)-2-isopropylthiazole-4-carboxamide] |
| 79.4 pM | C[C@@H]1CN(CCCc2ccc(-c3cccc(Oc4ncc(F)cc4C(=O)N[C@H]4CC[C@@H](NC(=O)c5nc(CO)cs5)CC4)c3)cc2)C[C@H](C)N1 [Example 150, N-((1s,4s)-4-(2-(4′-(3-((3S,5R)-3,5-dimethylpiperazin-1-yl)propyl)biphenyl-3-yloxy)-5-fluoronicotinamido)cyclohexyl)-4-(hydroxymethyl)thiazole-2-carboxamide] |
| 200 pM | Cc1cccc2nc(C(=O)N[C@H]3CC[C@@H](NC(=O)c4cc(F)cnc4Oc4cccc(-c5ccc(CN6C[C@@H](C)N[C@@H](C)C6)c(O)c5)c4)CC3)cn12 [Example 96, N-((1s,4s)-4-(2-(4′-(((3S,5R)-3,5-dimethylpiperazin-1-yl)methyl)-3′-hydroxybiphenyl-3-yloxy)-5-fluoronicotinamido)cyclohexyl)-5-methylimidazo[1,2-a]pyridine-2-carboxamide] |
| 31.6 pM | Cc1cc(C(=O)N[C@H]2CC[C@@H](NC(=O)c3cc(F)cnc3Oc3cccc(-c4ccc(CCCN5CCNCC5)cc4)c3)CC2)nn1C [Example 130, N-((1s,4s)-4-(1,5-dimethyl-1H-pyrazole-3-carboxamido)cyclohexyl)-5-fluoro-2-(4′-(3-(piperazin-1-yl)propyl)biphenyl-3-yloxy)nicotinamide] |
| 63.1 pM | Cc1cc(C(=O)N[C@H]2CC[C@@H](NC(=O)c3cc(F)cnc3Oc3cccc(-c4cccc(CN5C[C@@H](C)N[C@@H](C)C5)c4)c3)CC2)nn1C [Example 72, N-((1s,4s)-4-(1,5-dimethyl-1H-pyrazole-3-carboxamido)cyclohexyl)-2-(3′-(((3S,5R)-3,5-dimethylpiperazin-1-yl)methyl)biphenyl-3-yloxy)-5-fluoronicotinamide] |
| 25.1 pM | Cc1cc(C(=O)N[C@H]2CC[C@@H](NC(=O)c3cc(F)cnc3Oc3cccc(-c4ccc(CN5C[C@@H](C)N[C@@H](C)C5)cc4)c3)CC2)nn1C [Example 62, N-((1s,4s)-4-(1,5-dimethyl-1H-pyrazole-3-carboxamido)cyclohexyl)-2-(4′-(((3S,5R)-3,5-dimethylpiperazin-1-yl)methyl)biphenyl-3-yloxy)-5-fluoronicotinamide] |
| 126 pM | Cc1cc(C(=O)N[C@H]2CC[C@@H](NC(=O)c3cc(F)cnc3Oc3cccc(-c4ccc(CCCN5C[C@@H](C)N[C@@H](C)C5)cc4)c3)CC2)[nH]n1 [Example 156, 2-(4′-(3-((3S,5R)-3,5-Dimethylpiperazin-1-yl)propyl)biphenyl-3-yloxy)-5-fluoro-N-((1s,4s)-4-(3-methyl-1H-pyrazole-5-carboxamido)cyclohexyl)nicotinamide] |
| 158 pM | Cc1cc(C(=O)N[C@H]2CC[C@@H](NC(=O)c3cc(F)cnc3Oc3cccc(-c4cccc(CN5C[C@@H](C)N[C@@H](C)C5)c4Cl)c3)CC2)nn1C [Example 107, 2-(2′-chloro-3′-(((3S,5R)-3,5-dimethylpiperazin-1-yl)methyl)biphenyl-3-yloxy)-N-((1s,4s)-4-(1,5-dimethyl-1H-pyrazole-3-carboxamido)cyclohexyl)-5-fluoronicotinamide] |
| 39.8 pM | Cc1cc(C)n2ncc(C(=O)N[C@H]3CC[C@@H](NC(=O)c4cc(F)cnc4Oc4cccc(-c5ccc(CN6CCN(CC(=O)NC(C)C)CC6)cc5CN5CCOCC5)c4)CC3)c2n1 [Example 178, N-((1s,4s)-4-(5-Fluoro-2-(4′-((4-(2-(isopropylamino)-2-oxoethyl)piperazin-1-yl)methyl)-2′-(morpholinomethyl)biphenyl-3-yloxy)nicotinamido)cyclohexyl)-5,7-dimethylpyrazolo[1,5-a]pyrimidine-3-carboxamide] |
| 31.6 pM | Cc1cc(C(=O)N[C@H]2CC[C@@H](NC(=O)c3cc(F)cnc3Oc3cccc(-c4ccc(CCCN5CCCC5)cc4)c3)CC2)nn1C [Example 79, N-((1s,4s)-4-(1,5-dimethyl-1H-pyrazole-3-carboxamido)cyclohexyl)-5-fluoro-2-(4′-(3-(pyrrolidin-1-yl)propyl)biphenyl-3-yloxy)nicotinamide] |
| 79.4 pM | O=C(N[C@H]1CC[C@@H](NC(=O)c2cc(F)cnc2Oc2cccc(-c3ccc(CCCN4CCCNCC4)cc3)c2)CC1)c1cc2n(n1)CCCC2 [Example 127, N-((1s,4s)-4-(2-(4′-(3-(1,4-diazepan-1-yl)propyl)biphenyl-3-yloxy)-5-fluoronicotinamido)cyclohexyl)-4,5,6,7-tetrahydropyrazolo[1,5-a]pyridine-2-carboxamide] |
| 79.4 pM | Cc1cccc2nc(C(=O)N[C@H]3CC[C@@H](NC(=O)c4cc(F)cnc4Oc4cccc(-c5ccc(C(=O)O)cc5CN5CCOCC5)c4)CC3)cn12 [Example 59, 3′-(5-fluoro-3-((1s,4s)-4-(5-methylimidazo[1,2-a]pyridine-2-carboxamido)cyclohexylcarbamoyl)pyridin-2-yloxy)-2-(morpholinomethyl)biphenyl-4-carboxylic acid] |
| 63.1 pM | Cc1nc(C(=O)N[C@H]2CC[C@@H](NC(=O)c3cc(F)cnc3Oc3cccc(-c4ccc(CCCN5CCCC5)cc4)c3)CC2)cs1 [Example 73, N-((1s,4s)-4-(5-fluoro-2-(4′-(3-(pyrrolidin-1-yl)propyl)biphenyl-3-yloxy)nicotinamido)cyclohexyl)-2-methylthiazole-4-carboxamide] |
| 100 pM | Cc1cccc2nc(C(=O)N[C@H]3CC[C@@H](NC(=O)c4cc(F)cnc4Oc4cccc(-c5ccc(CN(C)CCO)cc5)c4)CC3)cn12 [Example 51, N-((1s,4s)-4-(5-fluoro-2-(4′-(((2-hydroxyethyl)(methyl)amino)methyl)biphenyl-3-yloxy)nicotinamido)cyclohexyl)-5-methylimidazo[1,2-a]pyridine-2-carboxamide] |
| 25.1 pM | Cc1csc(C(=O)N[C@H]2CC[C@@H](NC(=O)c3cc(F)cnc3Oc3cccc(-c4ccc(CN5CCN(CC(=O)NC(C)C)CC5)cc4CN4CCOCC4)c3)CC2)n1 [Example 198, N-((1s,4s)-4-(5-fluoro-2-(4′-((4-(2-(isopropylamino)-2-oxoethyl)piperazin-1-yl)methyl)-2′-(morpholinomethyl)biphenyl-3-yloxy)nicotinamido)cyclohexyl)-4-methylthiazole-2-carboxamide] |
| 31.6 pM | Cc1nc(C(=O)N[C@H]2CC[C@@H](NC(=O)c3cc(F)cnc3Oc3cccc(-c4ccc(O)cc4CN(C)C)c3)CC2)cs1 [Example 9, N-((1s,4s)-4-(2-(2′-((dimethylamino)methyl)-4′-hydroxybiphenyl-3-yloxy)-5-fluoronicotinamido)cyclohexyl)-2-methylthiazole-4-carboxamide] |
